# According to patent US20140234359A1, “PLANT VIRAL VACCINES AND THERAPEUTICS” (priority 2011, published 2014):
# Tested on: T-24 human bladder cancer cells
# Assay: Cell death of T-24 cells after anti-viral treatment, flow cytometry
# Format: cell-based
# Conditions: 10 μM efavirenz, 48 hours, vs methanol control
# Experimental: T-24 human bladder cells were grown in a 12 well plate in a total volume of 2 mL of 10% FBS complete RPMI. Cells were left untreated or treated with 2 μL of methanol (Sigma-Aldrich) or treated with 10 μM efavirenz (Toronto Research Chemicals Cat# E425000). Cells were grown in CO2 incubator at 37° C. for 48 hours. After 48 hours, cells were harvested and counted using trypan blue on a hemocytometer.
# The human bladder cancer T24 cell line was used to determine the effects of and anti-viral treatment on human tumor cells infected with plant virus. The T24 cells were grown in culture and then treated or not with the anti-reverse transcriptase drug, efavirenz, for twenty four or forty eight hours. Cell death assays were performed in triplicate. […] It is expected that treatment of the bladder cancer cells with a TLR activator to activate new virus replication in combination with the anti-viral drug will be useful in increasing cell death further. FIG. 2a depicts flow cytometer results on T-24 Human bladder cancer cells treated with efavirenz or methanol control for 48 hours. FIG. 2b is a bar graph depiction of the data.
smiles,measurement,setting,value
O=C1Nc2ccc(Cl)cc2[C@@](C#CC2CC2)(C(F)(F)F)O1 [efavirenz],cell death,,increased death
same,cell death,listed as Efavirenz,effective in killing a percentage of the cells
